# According to patent US10463664B2, “Inhibitors of HSV nucleotidyl transferases and uses therefor” (Saint Louis University, priority 2013, dated 2019):
# Tests used:
# [1] = tested on: HSV-1; experiment: Anti-HSV-1 replication assay in Vero cells, titer by plaque assay; format: cell-based, herpes simplex virus 1; conditions: for Inhibition of HSV-1 replication (in words): primary screening; for Anti-HSV-1 Log10 suppression 5 μM (screening symbol) / Anti-HSV-1 Log10 suppression 50 μM (screening symbol): visual inspection; for Anti-HSV-1 Log10 suppression 5 μM / Anti-HSV-1 Log10 suppression 50 μM: moi 0.1, 24 h, relative to DMSO
# Description: (§1) Anti-HSV-1 and -HSV-2 Replication Assay. Compounds to be screened were diluted in PBS supplemented to contain 2% newborn calf serum and 1% glutamine, and added in 100 μL, volume to confluent cell monolayers in 24-well cluster plates. Immediately thereafter HSV-1 and HSV-2, diluted in the supplemented PBS medium, were added to the wells in 50 μl volume such that the final concentration of compound was 50 μM and 5 μM and the multiplicity of infection was 0.1. The plates were incubated at 37° C. for 1 hour and then virus-containing inoculum was removed and the wells were washed once in PBS. Compounds, diluted to 50 μM and 5 μM in DMEM supplemented to contain 2% newborn calf serum and 1% each penicillin/streptomycin, were added at 0.5 mL/well. Plates were incubated at 37° C. an additional 23 hr, and then the plates were visually inspected through a phase contrast microscope for cytopathic effect, and for toxic effect. […] The entire contents of each well were collected by scraping. Samples were frozen at −80° C., and then subsequently thawed, sonicated, and infectious virus titer was determined by standard plaque assay on Vero cell monolayers. Because the compounds were dissolved at 10 mM in 100% DMSO, equivalent dilutions of DMSO were added to additional wells as a control for effects of the diluent. Each experiment was repeated once. EC50 values were determined as above except that serial dilutions of the compound to be tested were prepared starting at 50 μM. The inhibitory values were calculated by non-linear curve-fitting in GraphPad Prism.
# (§2) Monolayers were microscopically inspected 24 hours post-infection and wells in which more cells were visually healthier than the DMSO-treated controls were collected. Viral titers in the culture lysates were then determined by standard plaque assay on Vero cells. Inhibition of viral replication was categorized as <1 log10 relative to the DMSO-treated control, 1 to 3 log10 suppression, or ≥3 log10 suppression. […] Additionally, four polyoxygenated heterocycle compounds were tested (#128, 138, 139, 140).
# [2] = tested on: HSV-2; experiment: Anti-HSV-2 replication assay in Vero cells, titer by plaque assay; format: cell-based, herpes simplex virus 2; conditions: for Inhibition of HSV-2 replication (in words): primary screening; for Anti-HSV-2 Log10 suppression 5 μM (screening symbol) / Anti-HSV-2 Log10 suppression 50 μM (screening symbol): visual inspection; for Anti-HSV-2 Log10 suppression 5 μM / Anti-HSV-2 Log10 suppression 50 μM: moi 0.1, 24 h, relative to DMSO
# Description: as §1, §2
# [3] = target: T1, HBV RNaseH (Hepatitis B virus genotype A2 subtype adw2, UniProt P03159); experiment: Biochemical inhibition of HBV RNaseH (oligonucleotide-directed RNA cleavage assay); conditions: compounds at 60, 20 or 10 μM
# T1 construct: One of the inventors recently produced active recombinant HBV RNase H; hexahistidine; made in house; host or cells: E. coli
# T1 sequence (P03159 693-845): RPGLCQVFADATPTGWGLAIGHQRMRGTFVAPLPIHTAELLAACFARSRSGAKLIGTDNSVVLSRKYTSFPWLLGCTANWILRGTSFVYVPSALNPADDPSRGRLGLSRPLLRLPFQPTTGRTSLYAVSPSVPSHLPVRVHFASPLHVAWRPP
# Description: (§3) Biochemical inhibition of HBV RNaseH and human RNaseH1 activity. […] RNaseH activity was measured using an oligonucleotide-directed RNA cleavage assay in which a DNA oligonucleotide is annealed to an internally ^32P-labeled RNA, the RNA:DNA heteroduplex is incubated with the enzyme to permit cleavage, and then the RNA cleavage products are resolved by electrophoresis and detected by autoradiography. The compounds were included in the reaction mixes at 60, 20, or 10 μM and the amount of the RNA cleavage products in the compound-containing reactions was compared to reactions in which an equivalent concentration of DMSO was added as a vehicle control. The data were quantified using ImageJ.
# [4] = target: T2, human RNaseH1 (Homo sapiens, UniProt O60930); experiment: Biochemical inhibition of human RNaseH1 (oligonucleotide-directed RNA cleavage assay); conditions: compounds at 60, 20 or 10 μM
# T2 construct: hexahistidine; made in house; host or cells: E. coli
# T2 sequence (O60930 1-286): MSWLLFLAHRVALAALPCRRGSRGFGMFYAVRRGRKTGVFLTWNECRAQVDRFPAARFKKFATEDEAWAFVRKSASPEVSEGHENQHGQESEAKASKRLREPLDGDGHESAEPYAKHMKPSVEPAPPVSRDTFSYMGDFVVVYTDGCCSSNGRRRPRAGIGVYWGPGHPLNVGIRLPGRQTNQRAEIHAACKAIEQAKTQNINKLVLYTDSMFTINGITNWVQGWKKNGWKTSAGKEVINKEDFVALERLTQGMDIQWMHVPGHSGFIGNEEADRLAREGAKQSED
# Description: as §3
SMILES,Inhibition of HSV-1 replication (in words) [1],Inhibition of HSV-2 replication (in words) [2],Anti-HSV-1 Log10 suppression 5 μM (screening symbol) [1],Anti-HSV-1 Log10 suppression 50 μM (screening symbol) [1],Anti-HSV-2 Log10 suppression 5 μM (screening symbol) [2],Anti-HSV-2 Log10 suppression 50 μM (screening symbol) [2],Anti-HBV RNaseH [3],also measured
Cn1c(C(C)(C)NC(=O)c2ccccc2)nc(C(=O)NCc2ccc(F)cc2)c(O)c1=O [Compound 121],negligible inhibition,negligible inhibition,,,,,,
O=C1CCC(=O)N1O [Compound 139],None of these compounds was particularly efficacious,None of these compounds was particularly efficacious,,,,,,
"C[C@@H]1CCO[C@H]2Cn3cc(C(=O)NCc4ccc(F)cc4F)c(=O)c(O)c3C(=O)N12 [Compound 73, Dolutegravir, reference compound]",negligible inhibition,negligible inhibition,,,,,,
O=C(O)C(=O)CC(=O)c1ccccc1 [Compound 131],negligible inhibition,negligible inhibition,,,,,,
CCOC(=O)c1sc(NC(=O)CSc2nnc(Cc3ccccc3)o2)c(C#N)c1C [Compound 6],,,−,−,−,−,+ (inhibition at 60 μM),
Cc1sc2nc(-c3ccc([N+](=O)[O-])cc3)[nH]c(=O)c2c1C [Compound 38],,,,,,,+++ (inhibition at 10 μM),Anti-HSV-1 Log10 suppression 5 μM [1]: −0.07 log10; Anti-HSV-1 Log10 suppression 50 μM [1]: 0.07 log10; Anti-HSV-2 Log10 suppression 5 μM [2]: 0.11 log10; Anti-HSV-2 Log10 suppression 50 μM [2]: −0.05 log10
"Nc1ccn(C[C@@H](CO)OCP(=O)(O)O)c(=O)n1 [CID, Cidofovir, reference compound]",negligible,negligible,,,,,,Anti-Human RNaseH1 [4]: − (no inhibition at 60 μM); Anti-HSV-1 Log10 suppression 5 μM [1]: 0.77 log10; Anti-HSV-1 Log10 suppression 50 μM [1]: 2.67 log10; Anti-HSV-2 Log10 suppression 5 μM [2]: 0.38 log10; Anti-HSV-2 Log10 suppression 50 μM [2]: 1.19 log10
[N-]=[N+]=NCc1cccc(C(=O)CC(=O)C(=O)O)c1 [Compound 40],negligible inhibition,negligible inhibition,,,,,,
Cn1c(N2CCCCS2(=O)=O)nc(C(=O)NCc2ccc(F)cc2)c(O)c1=O [Compound 72],negligible inhibition,negligible inhibition,,,,,,
NC(=O)c1c(N)sc2c1CCCCC2 [Compound 22],,,−,−,−,−,,
O=C1c2ccc3ccccc3c2C(=O)N1[O-].[Na+] [Compound 128],None of these compounds was particularly efficacious,None of these compounds was particularly efficacious,,,,,,
N#Cc1cc2ccccc2oc1=N [Compound 21],,,−,−,−,−,− (no inhibition at 60 μM),
NC(=O)c1c(N)sc2c1CCCCC2 [Compound 3],,,,,,,− (no inhibition at 60 μM),Anti-HSV-1 Log10 suppression 5 μM [1]: 0.19 log10; Anti-HSV-1 Log10 suppression 50 μM [1]: −0.03 log10; Anti-HSV-2 Log10 suppression 5 μM [2]: 0.06 log10; Anti-HSV-2 Log10 suppression 50 μM [2]: 0.39 log10
COC(=O)Oc1nsnc1N1CCOCC1 [Compound 4],,,−,−,−,−,+ (inhibition at 60 μM),
O=C(O)c1cn(C2CC2)c2cc(Cl)c(F)cc2c1=O [Compound 66],,,−,+,−,−,− (no inhibition at 60 μM),
O=C(Oc1cccccc1=O)c1ccc(Cl)cc1 [Compound 63],negligible inhibition,negligible inhibition,,,,,,
O=C1C(=O)C(c2cc(O)c(O)c(O)c2)Oc2cc(O)ccc21 (stereo not drawn) [Compound 135],negligible inhibition,negligible inhibition,,,,,,
O=C1C(=O)C(c2ccc(O)c(O)c2)Oc2cc(O)cc(O)c21 (stereo not drawn) [Compound 134],negligible inhibition,negligible inhibition,,,,,,
Cc1cc(C(F)(F)F)c(C#N)c(=O)[nH]1 [Compound 19],,,−,−,−,−,− (no inhibition at 60 μM),
Cc1sc2nc(-c3ccccc3)nc(O)c2c1C [Compound 136],negligible inhibition,negligible inhibition,,,,,,
CCOC(=O)c1sc(NC(=O)CSc2nnc(-c3ccc(Cl)cc3)o2)c(C#N)c1C [Compound 24],,,−,−,−,−,− (no inhibition at 60 μM),
Cc1cc(C)c(C#N)c(=N)o1 [Compound 5],,,−,−,−,−,+ (inhibition at 60 μM),
CC1=C(C#N)C(=O)NC(=O)C1=Cc1ccc(-c2ccccc2)o1 [Compound 140],None of these compounds was particularly efficacious,None of these compounds was particularly efficacious,,,,,,
CCn1cc(C(=O)O)c(=O)c2ccc(C)nc21 [Compound 70],,,−,−,−,−,− (no inhibition at 60 μM),
O=C1c2ccccc2C(=O)N1O [Compound 138],None of these compounds was particularly efficacious,None of these compounds was particularly efficacious,,,,,,
